Laboratory results reported in patent publication US7935703B2, “Piperazines and piperidines as Mglur5 potentiators” (AstraZeneca AB, priority 2006, dated 2011).

The compounds below were run against T1, human mGluR5d (Homo sapiens, UniProt P41594) (assay: functional assays for mGluR5 potentiation: [Ca2+]i mobilization (FLIPR), secondary IP3 turnover assay). Details: active in assays described herein; which assay (FLIPR or IP3) is not stated.
T1 construct: expressed in transfected cells; host or cells: GHEK cells (human embryonic kidney cells expressing glutamate transporter), stated for the IP3 assay
Assay type: cell-based
Excerpt: The pharmacological properties of the compounds of the invention can be analyzed using standard assays for functional activity. Examples of glutamate receptor assays are well known in the art as described in for example Aramori et al., Neuron 8:757 (1992), Tanabe et al., Neuron 8:169 (1992), Miller et al., J Neuroscience 15: 6103 (1995), Balazs, et al., J. Neurochemistry 69:151 (1997). The methodology described in these publications is incorporated herein by reference. Conveniently, the compounds of the invention can be studied by means of an assay that measures the mobilization of intracellular calcium, [Ca^2+]i in cells expressing mGluR5.
Intracellular calcium mobilization was measured by detecting changes in fluorescence of cells loaded with the fluorescent indicator fluo-3. Fluorescent signals were measured using the FLIPR system (Molecular Devices). A two addition experiment was used that could detect compounds that either activate or antagonize the receptor.
For FLIPR analysis, cells expressing human mGluR5d were seeded on collagen coated clear bottom 96-well plates with black sides and analysis of [Ca^2+]i mobilization was done 24 hours after seeding.
FLIPR experiments were performed using a laser setting of 0.800 W and a 0.4 second CCD camera shutter speed. Each FLIPR experiment was initiated with 160 μL of buffer present in each well of the cell plate. After each addition of the compound, the fluorescence signal was sampled 50 times at 1 second intervals followed by 3 samples at 5 second intervals. Responses were measured as the peak height of the response within the sample period.
EC50 and IC50 determinations were made from data obtained from 8-point concentration response curves (CRC) performed in duplicate. Agonist CRC were generated by scaling all responses to the maximal response observed for the plate. Antagonist block of the agonist challenge was normalized to the average response of the agonist challenge in 14 control wells on the same plate.
We have validated a secondary functional assay for mGluR5d based on Inositol Phosphate (IP3) turnover. IP3 accumulation is measured as an index of receptor mediated phospholipase C turnover. GHEK cells stably expressing the human mGluR5d receptors were incubated with [3H] myo-inositol overnight, washed three times in HEPES buffered saline and pre-incubated for 10 minutes with 10 mM LiCl. Compounds (agonists) were added and incubated for 30 minutes at 37° C. Antagonist and potentiator activity was determined by pre-incubating test compounds for 15 minutes, then incubating in the presence of glutamate or DHPG (EC80 for antagonists, EC30 for potentiators) for 30 minutes. Reactions were terminated by the addition of perchloric acid (5%). […]

T1 sequence (P41594 21-942 isoform P41594-3 limits assumed): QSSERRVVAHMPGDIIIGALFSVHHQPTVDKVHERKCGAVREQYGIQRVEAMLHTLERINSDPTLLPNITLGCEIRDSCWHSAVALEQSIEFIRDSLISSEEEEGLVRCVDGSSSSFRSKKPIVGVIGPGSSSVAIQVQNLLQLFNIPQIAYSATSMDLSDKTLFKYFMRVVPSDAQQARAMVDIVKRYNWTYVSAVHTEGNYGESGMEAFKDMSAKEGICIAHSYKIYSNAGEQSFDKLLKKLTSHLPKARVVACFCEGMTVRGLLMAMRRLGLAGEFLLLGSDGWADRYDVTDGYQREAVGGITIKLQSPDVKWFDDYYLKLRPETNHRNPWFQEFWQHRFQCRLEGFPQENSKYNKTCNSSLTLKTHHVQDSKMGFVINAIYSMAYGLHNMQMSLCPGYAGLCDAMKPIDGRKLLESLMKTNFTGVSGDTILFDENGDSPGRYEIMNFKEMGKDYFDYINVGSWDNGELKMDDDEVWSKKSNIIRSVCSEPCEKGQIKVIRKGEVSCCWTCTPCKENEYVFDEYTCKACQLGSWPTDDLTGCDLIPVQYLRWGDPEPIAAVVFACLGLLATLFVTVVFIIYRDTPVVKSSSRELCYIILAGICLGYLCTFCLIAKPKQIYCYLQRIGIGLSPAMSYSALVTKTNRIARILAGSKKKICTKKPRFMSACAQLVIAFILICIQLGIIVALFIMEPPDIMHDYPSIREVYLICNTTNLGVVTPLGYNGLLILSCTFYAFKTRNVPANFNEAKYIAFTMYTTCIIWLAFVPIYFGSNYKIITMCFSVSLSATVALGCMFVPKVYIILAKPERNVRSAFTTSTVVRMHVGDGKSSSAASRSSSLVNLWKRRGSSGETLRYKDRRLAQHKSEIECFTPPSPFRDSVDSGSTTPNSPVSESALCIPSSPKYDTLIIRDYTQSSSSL

SMILES	EC50
O=C(COCc1ccccc1)N1CCN(c2ccccc2)CC1 [Compound 12, 2-Benzyloxy-1-(4-phenyl-piperazin-1-yl)-ethanone]	0.6 µM
N#Cc1cccnc1N1CCN(C(=O)COCc2ccccc2)CC1 [Compound 23, 2-[4-(2-Benzyloxy-acetyl)-piperazin-1-yl]-nicotinonitrile]	5.1 µM
O=C(COCc1ccc(F)cc1)N1CCN(c2ccc(F)cc2F)CC1 [Compound 48, 1-[4-(2,4-Difluoro-phenyl)-piperazin-1-yl]-2-(4-fluoro-benzyloxy)-ethanone]	0.4 µM
C[C@@H]1CN(c2ccc(Cl)cc2Cl)CCN1C(=O)COCc1ccncc1 [Compound 58, 1-[(R)-4-(2,4-Dichloro-phenyl)-2-methyl-piperazin-1-yl]-2-(pyridin-4-ylmethoxy)-ethanone]	2.3 µM
